Assay results from US20250084039A1, “4-SUBSTITUTED AMINOISOQUINOLINE DERIVATIVES” (Purdue Research Foundation, priority 2016, published 2025).
Like-named read-outs stand apart in the source and are kept apart here.

Assays:
[1] = molecular target: EPHB2 (Homo sapiens (Human), UniProt P29323); experiment: Reaction Biology HotSpot kinase assay; type: biochemical; conditions: 500 nM compound; read-out: Percentage kinase inhibition EPHB2
How it was run: (§1)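 Phosphotransfer from [γ-33P]ATP was quantified after filter binding on P81 paper. Conditions: 20 mM HEPES pH 7.5, 10 mM MgCl2, 0.1 mM Na3VO4, 2 mM DTT, 0.02 mg/mL BSA; ATP 100 μM final; 2 h at room temperature. Compound was dosed at 500 nM.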

[2] = molecular target: TIE2/TEK (Homo sapiens (Human), UniProt Q02763); experiment: Reaction Biology HotSpot kinase assay; type: biochemical; conditions: 500 nM compound; read-out: Percentage kinase inhibition TIE2/TEK
How it was run: as §1

[3] = molecular target: ROS/ROS1 (Homo sapiens (Human), UniProt P08922); experiment: Reaction Biology HotSpot kinase assay; type: biochemical; conditions: 500 nM compound; read-out: Percentage kinase inhibition ROS/ROS1
How it was run: as §1

[4] = molecular target: FLT3 (Homo sapiens (Human), UniProt P36888); experiment: Reaction Biology HotSpot kinase assay; type: biochemical; conditions: for inhibition at 0.5 µM: read-out: % inhibition of FLT3 activity
How it was run: (§2)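 HotSpot 33P transfer format. Enzyme, substrate and 500 nM test compound sit together for 20 min, then labelled and unlabelled ATP totalling 100 μM are added and phosphorylation proceeds for 2 h at room temperature. Products are captured on P81 cellulose paper, and activity is expressed relative to DMSO.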

[5] = molecular target: PDGFRa (Homo sapiens (Human), UniProt P16234); experiment: Reaction Biology HotSpot kinase assay; type: biochemical; conditions: 500 nM compound; read-out: Percentage kinase inhibition PDGFRa
How it was run: as §1

[6] = molecular target: BTK (Homo sapiens (Human), UniProt Q06187); experiment: Reaction Biology HotSpot kinase assay; type: biochemical; conditions: 500 nM compound; read-out: Percentage kinase inhibition BTK
How it was run: as §1

[7] = molecular target: YES/YES1 (Homo sapiens (Human), UniProt P07947); experiment: Reaction Biology HotSpot kinase assay; type: biochemical; conditions: 500 nM compound; read-out: Percentage kinase inhibition YES/YES1
Sequence of YES/YES1 (P07947 whole entry): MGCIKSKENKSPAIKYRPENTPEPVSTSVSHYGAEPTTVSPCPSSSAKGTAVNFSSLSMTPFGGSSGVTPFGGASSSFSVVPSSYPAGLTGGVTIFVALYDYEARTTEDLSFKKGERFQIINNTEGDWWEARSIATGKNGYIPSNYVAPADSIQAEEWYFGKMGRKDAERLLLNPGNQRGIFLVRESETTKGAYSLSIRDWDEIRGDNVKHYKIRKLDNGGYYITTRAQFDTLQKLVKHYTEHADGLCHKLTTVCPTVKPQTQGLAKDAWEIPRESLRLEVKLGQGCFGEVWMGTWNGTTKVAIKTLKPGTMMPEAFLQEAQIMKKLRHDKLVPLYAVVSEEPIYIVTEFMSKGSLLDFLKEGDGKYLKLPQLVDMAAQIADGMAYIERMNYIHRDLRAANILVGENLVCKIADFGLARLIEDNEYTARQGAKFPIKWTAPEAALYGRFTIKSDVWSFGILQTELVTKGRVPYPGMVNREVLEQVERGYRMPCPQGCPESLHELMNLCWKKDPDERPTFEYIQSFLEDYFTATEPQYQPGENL
How it was run: as §1

[8] = molecular target: AXL (Homo sapiens (Human), UniProt P30530); experiment: Reaction Biology HotSpot kinase assay; type: biochemical; conditions: 500 nM compound; read-out: Percentage kinase inhibition AXL
Sequence of AXL (P30530 26-894): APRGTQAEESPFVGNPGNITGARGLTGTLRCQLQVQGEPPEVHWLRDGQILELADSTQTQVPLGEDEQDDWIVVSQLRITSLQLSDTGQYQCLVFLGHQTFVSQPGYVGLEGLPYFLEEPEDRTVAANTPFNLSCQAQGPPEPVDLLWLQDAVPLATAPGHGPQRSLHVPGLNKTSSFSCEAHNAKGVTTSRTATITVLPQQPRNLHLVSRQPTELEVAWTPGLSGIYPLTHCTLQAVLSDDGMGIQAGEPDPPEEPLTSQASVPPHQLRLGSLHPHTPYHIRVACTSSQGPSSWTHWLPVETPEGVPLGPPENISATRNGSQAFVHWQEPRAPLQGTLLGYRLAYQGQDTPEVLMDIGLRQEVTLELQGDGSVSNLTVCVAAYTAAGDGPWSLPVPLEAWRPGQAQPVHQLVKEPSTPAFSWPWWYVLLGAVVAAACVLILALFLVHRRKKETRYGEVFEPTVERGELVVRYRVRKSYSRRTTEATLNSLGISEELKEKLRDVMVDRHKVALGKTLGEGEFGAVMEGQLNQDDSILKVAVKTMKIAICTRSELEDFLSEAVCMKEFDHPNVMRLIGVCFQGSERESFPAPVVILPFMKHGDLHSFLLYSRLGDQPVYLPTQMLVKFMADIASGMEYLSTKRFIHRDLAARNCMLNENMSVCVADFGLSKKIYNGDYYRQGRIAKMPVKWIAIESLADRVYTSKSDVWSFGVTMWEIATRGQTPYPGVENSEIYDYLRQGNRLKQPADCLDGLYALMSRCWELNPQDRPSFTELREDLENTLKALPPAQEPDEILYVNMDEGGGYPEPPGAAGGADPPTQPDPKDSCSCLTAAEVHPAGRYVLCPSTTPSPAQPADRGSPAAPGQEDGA
How it was run: as §1

[9] = molecular target: c-Met (Homo sapiens (Human), UniProt P08581); experiment: Reaction Biology HotSpot kinase assay; type: biochemical; conditions: 500 nM compound; read-out: Percentage kinase inhibition c-Met
Sequence of c-Met (P08581 25-1390): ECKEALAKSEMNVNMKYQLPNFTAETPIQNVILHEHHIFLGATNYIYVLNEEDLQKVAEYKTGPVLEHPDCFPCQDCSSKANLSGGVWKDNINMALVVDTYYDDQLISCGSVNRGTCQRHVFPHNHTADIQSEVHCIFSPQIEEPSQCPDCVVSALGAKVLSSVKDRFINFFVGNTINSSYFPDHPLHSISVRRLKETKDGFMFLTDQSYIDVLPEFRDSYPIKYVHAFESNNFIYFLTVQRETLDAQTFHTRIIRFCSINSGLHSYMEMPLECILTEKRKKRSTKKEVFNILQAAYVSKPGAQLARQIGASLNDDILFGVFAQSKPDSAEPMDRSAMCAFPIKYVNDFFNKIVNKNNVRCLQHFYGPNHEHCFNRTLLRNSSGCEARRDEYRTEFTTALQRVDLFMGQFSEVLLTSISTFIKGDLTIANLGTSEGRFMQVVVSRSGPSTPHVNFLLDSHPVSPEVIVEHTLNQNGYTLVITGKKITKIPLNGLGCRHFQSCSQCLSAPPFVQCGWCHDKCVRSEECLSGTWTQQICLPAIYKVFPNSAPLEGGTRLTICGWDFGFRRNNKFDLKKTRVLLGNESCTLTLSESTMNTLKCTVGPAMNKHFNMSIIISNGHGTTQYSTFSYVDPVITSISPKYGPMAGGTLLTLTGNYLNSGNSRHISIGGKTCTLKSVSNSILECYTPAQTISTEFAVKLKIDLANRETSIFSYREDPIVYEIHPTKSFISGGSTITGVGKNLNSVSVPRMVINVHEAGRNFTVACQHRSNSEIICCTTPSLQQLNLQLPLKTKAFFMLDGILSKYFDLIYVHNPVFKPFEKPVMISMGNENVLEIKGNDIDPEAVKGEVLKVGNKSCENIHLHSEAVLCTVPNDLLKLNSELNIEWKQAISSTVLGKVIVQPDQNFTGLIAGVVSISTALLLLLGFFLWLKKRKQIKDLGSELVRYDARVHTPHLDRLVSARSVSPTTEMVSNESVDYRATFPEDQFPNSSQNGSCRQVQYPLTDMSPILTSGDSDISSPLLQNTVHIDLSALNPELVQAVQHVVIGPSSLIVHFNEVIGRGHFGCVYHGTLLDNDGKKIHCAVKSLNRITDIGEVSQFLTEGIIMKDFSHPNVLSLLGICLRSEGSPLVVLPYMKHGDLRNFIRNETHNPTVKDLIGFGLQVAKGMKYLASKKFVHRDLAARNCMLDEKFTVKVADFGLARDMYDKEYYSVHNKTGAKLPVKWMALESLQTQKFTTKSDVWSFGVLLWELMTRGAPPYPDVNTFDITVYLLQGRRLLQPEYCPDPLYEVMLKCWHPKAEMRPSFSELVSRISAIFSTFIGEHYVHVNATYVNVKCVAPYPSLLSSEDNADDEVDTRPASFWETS
How it was run: as §1

[10] = molecular target: ERBB2/HER2 (Homo sapiens (Human), UniProt P04626); experiment: Reaction Biology HotSpot kinase assay; type: biochemical; conditions: 500 nM compound; read-out: Percentage kinase inhibition ERBB2/HER2
How it was run: as §1

[11] = molecular target: FLT4/VEGFR3 (Homo sapiens (Human), UniProt P35916); experiment: Reaction Biology HotSpot kinase assay; type: biochemical; conditions: 500 nM compound; read-out: Percentage kinase inhibition FLT4/VEGFR3
How it was run: as §1

[12] = molecular target: BRAF (Homo sapiens (Human), UniProt P15056); experiment: Reaction Biology HotSpot kinase assay; type: biochemical; conditions: 500 nM compound; read-out: Percentage kinase inhibition BRAF
How it was run: as §1

[13] = molecular target: KDR/VEGFR2 (Homo sapiens (Human), UniProt P35968); experiment: Reaction Biology HotSpot kinase assay; type: biochemical; conditions: 500 nM compound; read-out: Percentage kinase inhibition KDR/VEGFR2
How it was run: as §1

[14] = molecular target: TRKB (Homo sapiens (Human), UniProt Q16620); experiment: Reaction Biology HotSpot kinase assay; type: biochemical; conditions: 500 nM compound; read-out: Percentage kinase inhibition TRKB
How it was run: as §1

[15] = molecular target: FGFR1 (Homo sapiens (Human), UniProt P11362); experiment: Reaction Biology HotSpot kinase assay; type: biochemical; conditions: 500 nM compound; read-out: Percentage kinase inhibition FGFR1
How it was run: as §2

[16] = molecular target: EPHA5 (Homo sapiens (Human), UniProt P54756); experiment: Reaction Biology HotSpot kinase assay; type: biochemical; conditions: 500 nM compound; read-out: Percentage kinase inhibition EPHA5
How it was run: as §1

[17] = molecular target: PKCa (Homo sapiens (Human), UniProt P17252); experiment: Reaction Biology HotSpot kinase assay; type: biochemical; conditions: 500 nM compound; read-out: Percentage kinase inhibition PKCa
How it was run: as §1

[18] = molecular target: ALK (Homo sapiens (Human), UniProt Q9UM73); experiment: Reaction Biology HotSpot kinase assay; type: biochemical; conditions: 500 nM compound; read-out: Percentage kinase inhibition ALK
How it was run: as §1

[19] = molecular target: EGFR (Homo sapiens (Human), UniProt P00533); experiment: Reaction Biology HotSpot kinase assay; type: biochemical; conditions: 500 nM compound; read-out: Percentage kinase inhibition EGFR
How it was run: as §1

[20] = molecular target: FGR (Homo sapiens (Human), UniProt P09769); experiment: Reaction Biology HotSpot kinase assay; type: biochemical; conditions: 500 nM compound; read-out: Percentage kinase inhibition FGR
How it was run: as §1

[21] = molecular target: FLT1/VEGFR1 (Homo sapiens (Human), UniProt P17948); experiment: Reaction Biology HotSpot kinase assay; type: biochemical; conditions: 500 nM compound; read-out: Percentage kinase inhibition FLT1/VEGFR1
Sequence of FLT1/VEGFR1 (P17948 27-1338): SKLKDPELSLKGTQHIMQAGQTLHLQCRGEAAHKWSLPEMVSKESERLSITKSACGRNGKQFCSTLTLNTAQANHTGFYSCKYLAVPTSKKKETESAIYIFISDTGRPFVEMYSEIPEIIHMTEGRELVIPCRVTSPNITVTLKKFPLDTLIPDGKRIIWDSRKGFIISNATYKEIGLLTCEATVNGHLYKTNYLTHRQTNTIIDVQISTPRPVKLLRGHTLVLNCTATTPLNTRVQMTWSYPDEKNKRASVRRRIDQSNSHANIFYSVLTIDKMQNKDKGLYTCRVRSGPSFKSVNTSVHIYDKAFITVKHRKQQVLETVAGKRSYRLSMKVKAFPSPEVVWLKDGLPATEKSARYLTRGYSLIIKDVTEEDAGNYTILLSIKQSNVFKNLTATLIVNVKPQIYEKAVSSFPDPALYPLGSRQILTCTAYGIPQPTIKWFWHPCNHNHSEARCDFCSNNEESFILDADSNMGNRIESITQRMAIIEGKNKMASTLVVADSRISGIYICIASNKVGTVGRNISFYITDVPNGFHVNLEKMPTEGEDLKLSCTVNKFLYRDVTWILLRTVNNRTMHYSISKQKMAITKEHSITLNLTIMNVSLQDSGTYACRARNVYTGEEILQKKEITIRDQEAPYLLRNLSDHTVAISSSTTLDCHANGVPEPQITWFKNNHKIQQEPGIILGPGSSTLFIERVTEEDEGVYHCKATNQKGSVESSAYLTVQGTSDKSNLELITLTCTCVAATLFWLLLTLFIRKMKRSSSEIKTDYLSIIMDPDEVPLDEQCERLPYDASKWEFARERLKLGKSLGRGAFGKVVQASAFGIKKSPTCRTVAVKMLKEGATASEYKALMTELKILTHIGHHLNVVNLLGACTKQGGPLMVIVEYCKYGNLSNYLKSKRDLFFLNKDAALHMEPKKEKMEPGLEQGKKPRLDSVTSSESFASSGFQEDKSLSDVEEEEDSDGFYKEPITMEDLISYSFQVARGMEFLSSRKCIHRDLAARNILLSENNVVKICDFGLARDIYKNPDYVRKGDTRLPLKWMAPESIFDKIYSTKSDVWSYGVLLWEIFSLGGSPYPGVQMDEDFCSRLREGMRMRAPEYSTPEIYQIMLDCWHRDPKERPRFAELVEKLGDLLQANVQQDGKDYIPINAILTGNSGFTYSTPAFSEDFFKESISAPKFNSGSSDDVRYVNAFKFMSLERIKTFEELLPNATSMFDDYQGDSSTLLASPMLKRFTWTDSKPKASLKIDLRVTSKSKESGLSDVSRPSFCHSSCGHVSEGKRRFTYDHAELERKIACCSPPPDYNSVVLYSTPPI
How it was run: as §1

[22] = test system: MOLM14; experiment: IC50 determination (proliferation assay, CellTiter-Blue); type: cell-based
How it was run: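 MOLM14 and MV4-11 cells seeded about 18 h before compound addition (DMSO-diluted), then 72 h exposure.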

[23] = test system: K562; experiment: IC50 proliferation assay (Alamar Blue, 72 h); type: cell-based; conditions: Homo sapiens
[24] = test system: MV4-11; experiment: IC50 proliferation assay (Alamar Blue, 72 h); type: cell-based; conditions: Homo sapiens, MV4-11, 72 h; read-out: IC50 (proliferation inhibition) Cell line - MV4-11
How it was run: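 Cells seeded ~18 h before treatment with semi-serial compound dilutions made in DMSO then growth medium. After 72 h exposure, Alamar Blue added and read following 4 h further at 37 °C; IC50 for proliferation inhibition.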

[25] = K562, 72 h, read-out: IC50 (proliferation inhibition) Cell line - K562
[26] = K562, Table 18, read-out: Inhibition of proliferation of K562 cell lines (CML)

Sequence of EPHB2 (P29323 19-1055): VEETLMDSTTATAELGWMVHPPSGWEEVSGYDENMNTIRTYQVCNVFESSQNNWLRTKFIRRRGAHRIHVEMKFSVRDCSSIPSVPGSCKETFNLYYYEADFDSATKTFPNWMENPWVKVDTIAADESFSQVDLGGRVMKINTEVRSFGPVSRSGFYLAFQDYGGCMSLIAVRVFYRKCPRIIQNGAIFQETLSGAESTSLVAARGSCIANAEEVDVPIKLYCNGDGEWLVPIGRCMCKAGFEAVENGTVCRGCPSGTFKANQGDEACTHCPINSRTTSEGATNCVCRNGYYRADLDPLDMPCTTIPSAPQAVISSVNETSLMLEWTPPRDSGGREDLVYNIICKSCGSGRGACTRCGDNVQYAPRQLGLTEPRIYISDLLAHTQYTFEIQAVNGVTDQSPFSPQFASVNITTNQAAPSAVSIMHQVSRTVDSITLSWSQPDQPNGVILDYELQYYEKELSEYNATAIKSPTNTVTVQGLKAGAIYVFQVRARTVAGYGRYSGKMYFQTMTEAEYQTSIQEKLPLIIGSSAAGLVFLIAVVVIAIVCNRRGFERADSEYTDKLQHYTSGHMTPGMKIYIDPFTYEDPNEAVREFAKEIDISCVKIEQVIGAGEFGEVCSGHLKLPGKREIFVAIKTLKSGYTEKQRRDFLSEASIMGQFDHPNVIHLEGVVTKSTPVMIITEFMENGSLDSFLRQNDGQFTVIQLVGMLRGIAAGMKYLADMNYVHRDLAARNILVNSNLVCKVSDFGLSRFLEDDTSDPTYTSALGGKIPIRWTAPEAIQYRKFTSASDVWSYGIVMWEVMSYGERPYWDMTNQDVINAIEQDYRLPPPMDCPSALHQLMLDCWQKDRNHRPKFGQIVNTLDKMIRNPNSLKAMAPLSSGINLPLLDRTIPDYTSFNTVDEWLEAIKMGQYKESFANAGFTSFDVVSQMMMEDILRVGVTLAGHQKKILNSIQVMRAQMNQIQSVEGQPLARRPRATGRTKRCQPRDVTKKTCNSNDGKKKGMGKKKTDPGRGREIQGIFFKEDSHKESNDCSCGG

Compound	inhibition at 0.5 µM [1]	inhibition at 0.5 µM [2]	inhibition at 0.5 µM [3]	inhibition at 0.5 µM [5]	inhibition at 0.5 µM [6]	inhibition at 0.5 µM [7]	inhibition at 0.5 µM [8]	inhibition at 0.5 µM [9]	inhibition at 0.5 µM [10]	inhibition at 0.5 µM [11]	inhibition at 0.5 µM [12]	inhibition at 0.5 µM [13]	inhibition at 0.5 µM [14]	inhibition at 0.5 µM [15]	inhibition at 0.5 µM [16]	inhibition at 0.5 µM [17]	inhibition at 0.5 µM [18]	inhibition at 0.5 µM [19]	inhibition at 0.5 µM [20]	inhibition at 0.5 µM [21]	other results
COc1cc2nc(N)nc(C#Cc3cc(C(=O)Nc4ccc(CN5CCN(C)CC5)c(C(F)(F)F)c4)ccc3C)c2cc1OC [HSN325]	3%	47%	0%	53%	4%	41%	3%	15%	4%	42%	38%	90%	0%	58%	30%	5%	2%	0%	39%	42%	% inhibition of FLT3 activity ([4]; 500 nM compound): 34%; inhibition at 0.5 µM ([4]; 500 nM compound): 33%; IC50 ([22]; Homo sapiens, MOLM-14): 456 ± 15 nM; IC50 [23, 25]: 444 nM; IC50 [23, 26]: 44 ± 0.1 nM; IC50 [24]: 135 nM
Cc1ccc(C(=O)Nc2ccc(CN3CCN(C)CC3)c(C(F)(F)F)c2)cc1C#Cc1c(N)ncc2ccc(Cl)cc12 [HSN286]	96%	97%	10%	93%	41%	100%	3%	20%	25%	98%	97%	95%	79%	98%	96%	5%	0%	44%	100%	86%	inhibition at 0.5 µM [4]: 97%; IC50 [22]: 0.72 ± 0.02 nM; IC50 ([22]; Homo sapiens, MOLM-14): 0.7 nM; IC50 [23, 26]: 3.5 ± 0.02 nM; IC50 [24]: 0.4 nM
Cc1ccc(C(=O)Nc2ccc(CN3CCN(C)CC3)c(C(F)(F)F)c2)cc1C#Cc1cnc(N)c2ncccc12 [HSN356, 3-((8-amino-1,7-naphthyridin-5-yl)ethynyl)-4-methyl-N-(4-((4-methylpiperazin-1-yl)methyl)-3-(trifluoromethyl)phenyl)benzamide]	100%	100%	0%	92%	65%	100%	4%	15%	64%	94%	100%	97%	75%	96%	96%	0%	0%	59%	99%	94%	% inhibition of FLT3 activity [4]: 99%; inhibition at 0.5 µM [4]: 98%; proliferation inhibition in words, MOLM-14 [22]: potent proliferation inhibitors; IC50 ([22]; Homo sapiens, MOLM-14): 0.62 ± 0.02 nM; IC50 [23, 25]: 2 nM; IC50 [23, 26]: 1.8 ± 0.03 nM; IC50 [24]: 0.4 nM
